One experiment addresses A2A adenosine receptor (Homo sapiens, UniProt P29274). The note with it: pH below 7.4; cited from earlier work.
For experiment [1], the system named is rat adjuvant model of arthritis. Put plainly: Rat adjuvant model of arthritis, analgesic relief. It is filed as in vivo.
The target of another experiment is adenosine A2A receptor (Homo sapiens, UniProt P29274). Put plainly: EC50 at the adenosine A2A receptor. It is filed as biochemical. From the text:
For the avoidance of doubt, the EC50 value of a compound is defined herein as the concentration of the compound that provokes a receptor response halfway between the baseline receptor response and the maximum receptor response (as determined, for example, using a dose-response curve).
The EC50 value should be determined under standard conditions (balanced salt solutions buffered to pH 7.4). For EC50 determinations using isolated membranes, cells and tissues this would be in buffered salt solution at pH 7.4 (e.g. cell culture medium), for example as in Daly et al., Pharmacol. (1993) 46, 91-100), or preferably as in Tilburg et al (J. Med. Chem. (2002) 45, 91-100). The EC50 could also be determined in vivo by measuring A2A adenosine receptor mediated responses in a normal healthy animal, or even in a tissue perfused under normal conditions (i.e. oxygenated blood, or oxygenated isotonic media, also buffered at pH 7.4) in a normal healthy animal.

Experiment [2] deals with patients suffering from diabetic neuropathy. Description: Phase 2A clinical trial, diabetic neuropathic pain. It is filed as in vivo, human. The procedure:
In a Phase 2A clinical trial, patients suffering from diabetic neuropathy were administered 2-methoxyadenosine (2-MeOAd)) (7 mg 3 times per day) or a placebo over a four week period, and asked to rate their pain intensity (diabetic neuropathic pain) once per week based on an 11 point Likert Scale (0-10). The patients included some who were already being administered with a calcium channel blocker at a conventional therapeutic dose. The calcium channel blockers administered included Amlodipine (5-10 mg once per day), Verapamil, or Felodipine.
Patients in the clinical trial also completed the Short form McGill pain questionnaire (SF-MPQ) (Melzack, Pain, 1987, August; 30(2):191-7). The main component of the SF-MPQ consists of 15 descriptors (11 sensory; 4 affective) which are rated on an intensity scale as […], 1=mild, 2=moderate or 3=severe. Three pain scores are derived from the sum of the intensity rank values of the words chosen for sensory, affective and total descriptors. The SF-MPQ also includes the Present Pain Intensity (PPI) index of the standard MPQ and a visual analogue scale (VAS).

[3] abbreviates: patients also administered a calcium channel blocker.
Setting [4] is: with calcium channel blocker, P<0.02.

Sequence of adenosine A2A receptor (P29274 whole entry): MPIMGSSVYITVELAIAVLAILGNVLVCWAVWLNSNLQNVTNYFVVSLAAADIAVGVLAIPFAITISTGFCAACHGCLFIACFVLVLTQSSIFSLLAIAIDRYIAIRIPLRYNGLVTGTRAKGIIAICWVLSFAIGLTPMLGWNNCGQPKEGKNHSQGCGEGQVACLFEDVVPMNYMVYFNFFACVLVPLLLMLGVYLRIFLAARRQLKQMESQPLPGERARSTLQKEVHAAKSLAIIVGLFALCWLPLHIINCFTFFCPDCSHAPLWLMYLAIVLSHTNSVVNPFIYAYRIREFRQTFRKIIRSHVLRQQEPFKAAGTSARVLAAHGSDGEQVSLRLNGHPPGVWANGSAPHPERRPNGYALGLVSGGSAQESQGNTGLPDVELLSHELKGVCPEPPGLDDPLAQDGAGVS
Sequence of A2A adenosine receptor (P29274 whole entry): as above

In the case of `COc1nc(N)c2ncn([C@@H]3O[C@H](CO)[C@@H](O)[C@H]3O)c2n1` [2-methoxyadenosine], at A2A adenosine receptor, the “affinity for adenosine receptors at pH below pH 7.4” value is on record as “increased affinity”. Besides, the “minimum plasma concentration giving maximal analgesic relief” value in experiment [1] came to 0.06 µM. Further, on adenosine A2A receptor, the EC50 (usually the concentration giving half of the maximal effect) is roughly 1000 nM. In addition, in experiment [2] (setting [3]), the “effect on 24-hour pain intensity compared with placebo” value was “significant effect”; the “responder rate, patients who experienced >30% pain relief” value stood at 74%; the “responder rate, patients who experienced >50% pain relief” value came out at 43%. The “median change from baseline in 24-hour pain intensity” value in experiment [2] (patients also administered a calcium channel blocker, after 4 weeks, 7 mg 3 times per day, 11 point Likert Scale, P<0.01) is reported as “more than −2.5”. In experiment [2] (patients not also administered a calcium channel blocker), the “effect on 24-hour pain intensity compared with placebo” value is “no effect”. Further, the “median change from baseline in 24-hour pain intensity, difference below placebo” value in experiment [2] (whole patient population (with and without calcium channel blocker), Week 4, 7 mg 3 times per day, 11 point Likert Scale) stood at 0.7. Moreover, the “patient global impression of change (PGIC), 7 point scale” value in experiment [2] (with calcium channel blocker) was “favourable effect”. Also, in experiment [2] (setting [4]), the “Clinical global impression of change (CGIC), 7 point scale” value is listed as “reduction” and the “pain rated by the VAS (SF-MPQ)” value is recorded as “reduction”. Also, the “SF-MPQ total pain intensity score” value in experiment [2] (with calcium channel blocker, P<0.03) is “reduction”. The “present pain intensity (PPI, SF-MPQ)” value in experiment [2] (with calcium channel blocker, P<0.04) was “reduction”.

(Values after patent US20120165285A1, “COMBINED PREPARATION FOR USE AS A MEDICAMENT” (priority 2009, published 2012).)
